According to patent publication US4552888A, “Ascorbic acid ethers in angiogene” (Eli Lilly and Company, priority 1983, dated 1985):
Where a name gives a salt, the structure may show the parent alone. Read-outs that look alike come from different tables or passages of the source. Each block holds one compound with its values, some of them ahead of it.

Legend:
pKa by titration = assay type: physicochemical
angiogenesis factor = experiment: Inhibition of angiogenesis factor (3683 Morris hepatoma lysosomal-mitochondrial pellet) induced serpentine vessels in mice; assay type: in vivo, mice (SPF/ND4 female)
Description: Lysosomal-mitochondrial pellets containing angiogenesis factor are prepared from 3683 Morris hepatoma. The pellet is diluted with 7-8 ml. of 15% ficoll. With this dilution, 8-10 serpentine vessels will be produced per 0.2 cc. injection as described below for the control group.
Next, 15 SPF/ND4 female mice weighing 20-22 g. are shaved on the left side and then divided into three groups of five each. One group (drug group) is injected subcutaneously and laterally with 0.20 cc. of the lysosomal-mitochondrial preparation diluted with 15% ficoll. This group of mice is then dosed individually by the intraperitoneal route with 0.5 cc. of a solution or suspension in a standard vehicle containing the compound under test, usually at an initial dose level of 300 mg./kg. If this dose level is toxic, two-fold dilutions are made until all mice survive a single dose. The second group of mice (control group) is injected subcutaneously and laterally with 0.2 cc. of the lysosomal-mitochondrial suspension diluted with 15% ficoll and dosed intraperitoneally with 0.5 cc. of the vehicle alone. The third group (negative control) is injected with ficoll solution only (no treatment with drug or vehicle). The mice are sacrificed after 24 hours. Each mouse is placed on its side on a dissecting board with the shaved side up. Starting at the flank, the skin is cut straight to the back of the animal. A similar cut is made behind the front leg. Then the skin is cut along the back making a flap of about one inch by two inches. The skin is carefully separated from the connective tissue using forceps and a scalpel. The skin flap is then laid back exposing the lysosomal-mitochondrial implant which is attached to the skin. The skin flap is gently flattened out and with the use of a binocular dissecting scope, serpentine vessels are observed around the lysosomal-mitochondrial implant and their number counted. All observations of the number of serpentine vessels are made at the same power of the microscope (1X). The average number of serpentine vessels for each group is calculated. The percent inhibition is then calculated according to the following equation. [formula] where sv=average number of serpentine vessels.
If the negative control group described above has any serpentine vessels, the test is invalid due to contamination of the ficoll solution.
Table I covers compounds according to formula I above in which R^2 and R^3 are both H, table II covers compounds in which R^2 and R^3 form a 1-methylethylidene group, and Table III compounds in which R^2 plus R^3 equal a benzylidene group or other group.
One of the compounds of this invention, 3-O-n-octadecyl-5,6-O-(1-methylethylidene)-L-ascorbic acid was tested at a series of dose levels for its ability to inhibit tumor angiogenesis and the results of these tests are set forth in Table IV.

[1] = Mus musculus, ip, 24 h, Table 2, i.p., dose 25 mg./kg., 24 hours, read-out: % inhibition (serpentine vessels)
[2] = Mus musculus, ip, 24 h, Table 3, 150 mg./kg. dose intraperitoneally
[3] = Mus musculus, ip, 24 h, Table 1
[4] = Mus musculus, ip, 24 h, Table 1, i.p., dose 25 mg./kg., 24 hours, read-out: average % inhibition (serpentine vessels)
[5] = Mus musculus, ip, 24 h, Table 2, dose 150 mg./kg.
[6] = Table 2, i.p., dose 10 mg./kg., 24 hours

- pKa (pKa by titration; read-out: pKa): 11.6
Structure (SMILES): CCCCCCCCCCCCCCCCCCOC1=C(O)C(=O)O[C@@H]1[C@H](O)CO (relative stereo) [3-O-n-octadecyl isoascorbic acid]

- titratable group (pKa by titration): No titratable group
Structure (SMILES): CC1(C)OC[C@@H]([C@H]2OC(=O)C(OCCCCC#N)=C2OCCCCC#N)O1 [2,3-O-bis(4-cyanobutyl)-5,6-O-(1-methylethylidene)-L-ascorbic acid]

- titratable group (pKa by titration): No titratable group
Structure (SMILES): CC1(C)OC[C@@H]([C@H]2OC(=O)C(OCc3ccc(F)cc3)=C2OCc2ccc(F)cc2)O1 [2,3-O-bis(4-fluorobenzyl)-5,6-O-(1-methylethylidene)-L-ascorbic acid]
- inhibition in vivo at 37.5 mg/kg (angiogenesis factor; Mus musculus, ip, 24 h, Table 2, dose 37.5 mg./kg.): 45%

- titratable group (pKa by titration): No titratable group
Structure (SMILES): CCCCCCCCCCCCCCCCCCOC1=C(OCCCCCCCCCCCCCCCCCC)[C@@H]([C@@H]2COC(C)(C)O2)OC1=O [2,3-O-bis(n-octadecy-5,6-O-(1-methylethylidene)-L-ascorbic acid]
- inhibition in vivo at 25 mg/kg (angiogenesis factor; [1]): 18 to 85%

- titratable group (pKa by titration): No titratable groups
Structure (SMILES): CCCCCCCCCCCCCCCOC1=C(OCCCCCCCCCCCCCCC)[C@@H]([C@@H]2COC(C)(C)O2)OC1=O [2,3-O-bis(n-pentadecyl)-5,6-O-(1-methylethylidene)-L-ascorbic acid]

- titratable group (pKa by titration): No titratable group
Structure (SMILES): Cc1ccccc1COC1=C(OCc2ccccc2C)[C@@H]([C@@H]2COC(C)(C)O2)OC1=O [2,3-bis(O-2-methylbenzyl)-5,6-O-(1-methylethylidene-L-ascorbic acid]

- titratable group (pKa by titration): no titratable group
Structure (SMILES): CCCCCCCCCCCCCCCCOC1=C(OCCCCCCCCCCCCCCCC)[C@@H]([C@@H](O)CO)OC1=O [2,3-di-(O-n-hexadecyl)-L-ascorbic acid]

- pKa (pKa by titration; read-out: pKa): 8
Structure (SMILES): CCCCCCCCCCCCCCCCCCOC1=C(OCCCN(C)C)C(=O)O[C@@H]1[C@@H](O)CO [2-O-(3-dimethylaminopropyl)-3-O-n-octadecyl-L-ascorbic acid hydrochloride]

Structure (SMILES): COCCOC1=C(O)C(=O)O[C@@H]1[C@@H]1COC(c2ccccc2)O1 (stereo partly drawn) [3-(2-methoxyethyl)-5,6-O-benzylidine-L-ascorbic acid]
- inhibition in vivo at 150 mg/kg (angiogenesis factor; [2]): 31%

- pKa (pKa by titration; read-out: pKa): 10.6
Structure (SMILES): COc1ccc(OC)c(C(=O)COC2=C(O)C(=O)O[C@@H]2[C@@H]2COC(C)(C)O2)c1 [3-O-(2,5-dimethoxyphenacyl)-5,6-O-(1-methylethylidene)-L-ascorbic acid]

- pKa (pKa by titration; read-out: pKa): 10.4
Structure (SMILES): CC1(C)OC[C@@H]([C@H]2OC(=O)C(O)=C2OCCOCCBr)O1 [3-O-(2-bromoethoxyethyl)-5,6-O-(1-methylethylidene)-L-ascorbic acid]
- inhibition in vivo at 240 mg/kg (angiogenesis factor; Mus musculus, ip, 24 h, Table 2, dose 240 mg./kg.): 71%

Structure (SMILES): O=C1O[C@H]([C@@H](O)CO)C(OCCOCCBr)=C1O [3-O-(2-bromoethoxyethyl)-L-ascorbic acid]
- inhibition in vivo at 300 mg/kg (angiogenesis factor; [3]): 36%

- pKa (pKa by titration): 10.31
Structure (SMILES): COCCOC1=C(O)C(=O)O[C@@H]1[C@@H]1COC(C)(C)O1 [3-O-(2-methoxyethyl)-5,6-O-(1-methylethylidene)-L-ascorbic acid]
- % inhibition (serpentine vessels) (angiogenesis factor; Table 2, i.p., range dose 10-240 mg./kg., 24 hours): 28-61%

- pKa (pKa by titration; read-out: pKa): 10.8
Structure (SMILES): Cc1ccccc1COC1=C(O)C(=O)O[C@@H]1[C@@H](O)CO [3-O-(2-methylbenzyl)-L-ascorbic acid]

- pKa (pKa by titration; read-out: pKa): 10.3
Structure (SMILES): CC1(C)OC[C@@H]([C@H]2OC(=O)C(O)=C2OCCN2C(=O)c3ccccc3C2=O)O1 [3-O-(2-phthalimidoethyl)-5,6-O-(1-methylethylidene)-L-ascorbic acid]
- inhibition in vivo at 120 mg/kg (angiogenesis factor; Mus musculus, ip, 24 h, Table 2, dose 120 mg./kg.): 30%

Structure (SMILES): O=C1O[C@H]([C@@H](O)CO)C(OCCN2C(=O)c3ccccc3C2=O)=C1O [3-O-(2-phthalimidoethyl)-L-ascorbic acid]
- inhibition in vivo at 300 mg/kg (angiogenesis factor; [3]): 55%

- pKa (pKa by titration; read-out: pKa): 10.5
Structure (SMILES): O=C1O[C@H]([C@@H](O)CO)C(OCc2cccc(Br)c2)=C1O [3-O-(3-bromobenzyl)-L-ascorbic acid]
- inhibition in vivo at 300 mg/kg (angiogenesis factor; [3]): 74%

Structure (SMILES): O=C1O[C@H]([C@@H](O)CO)C(OCc2cccc(Cl)c2)=C1O [3-O-(3-chlorobenzyl)-L-ascorbic acid]
- inhibition in vivo at 25 mg/kg (angiogenesis factor; [4]): 41%

Structure (SMILES): CC1(C)OC[C@@H]([C@H]2OC(=O)C(O)=C2OCc2cccc(F)c2)O1 [3-O-(3-fluorobenzyl)-5,6-O-(1-methylethylidene)-L-ascorbic acid]
- inhibition in vivo at 25 mg/kg (angiogenesis factor; [1]): 27 to 82%

Structure (SMILES): O=C1O[C@H]([C@@H](O)CO)C(OCc2cccc(F)c2)=C1O [3-O-(3-fluorobenzyl)-L-ascorbic acid]
- inhibition in vivo at 25 mg/kg (angiogenesis factor; [4]): 52%

Structure (SMILES): Cc1cccc(COC2=C(O)C(=O)O[C@@H]2[C@@H](O)CO)c1 [3-O-(3-methylbenzyl)-L-ascorbic acid]
- inhibition in vivo at 25 mg/kg (angiogenesis factor; [4]): 54%

- pKa (pKa by titration; read-out: pKa): 10.7
Structure (SMILES): CC1(C)OC[C@@H]([C@H]2OC(=O)C(O)=C2OCCCOc2ccccc2)O1 [3-O-(3-phenoxypropyl)-5,6-O-(1-methylethylidene)-L-ascorbic acid]
- inhibition in vivo at 150 mg/kg (angiogenesis factor; [5]): 36%

Structure (SMILES): O=C1O[C@H]([C@@H](O)CO)C(OCCCOc2ccccc2)=C1O [3-O-(3-phenoxypropyl)-L-ascorbic acid]
- inhibition in vivo at 300 mg/kg (angiogenesis factor; [3]): 68%

- pKa (pKa by titration; read-out: pKa): 10.1
Structure (SMILES): CC1(C)OC[C@@H]([C@H]2OC(=O)C(O)=C2OCc2ccc([N+](=O)[O-])cc2)O1 [3-O-(4-nitrobenzyl)-5,6-O-(1-methylethylidene)-L-ascorbic acid]
- inhibition in vivo at 150 mg/kg (angiogenesis factor; [5]): 42 to 85%

- pKa (pKa by titration; read-out: pKa): 10.8
Structure (SMILES): CC1(C)OC[C@@H]([C@H]2OC(=O)C(O)=C2OCCCCCCCCCCCO)O1 [3-O-(11-hydroxyundecyl)-5,6-O-(1-methylethylidene)-L-ascorbic acid]
- inhibition in vivo at 150 mg/kg (angiogenesis factor; [5]): 67%

Structure (SMILES): O=C(O)CCCCCCCCCCOC1=C(O)C(=O)O[C@@H]1[C@@H](O)CO [3-O-(ω-hydroxycarbonyldecyl)-L-ascorbic acid]
- inhibition in vivo at 25 mg/kg (angiogenesis factor; [4]): 41%

Structure (SMILES): CCCCOC1=C(O)C(=O)O[C@@H]1[C@@H]1COC(c2ccccc2)O1 (stereo partly drawn) [3-O-n-butyl-5,6-O-(benzylidene)-L-ascorbic acid]
- inhibition in vivo at 150 mg/kg (angiogenesis factor; [2]): 60%

- pKa (pKa by titration; read-out: pKa): 11.1
Structure (SMILES): CCCCCCCCCCCCCCCCOC1=C(O)C(=O)O[C@@H]1[C@@H](O)CO [3-O-n-hexadecyl)-L-ascorbic acid]
- inhibition in vivo at 25 mg/kg (angiogenesis factor; [4]): 31%

- pKa (pKa by titration; read-out: pKa): 9
Structure (SMILES): CCCCCCCCCCCCCCCCCCOC1=C(O)C(=O)O[C@@H]1[C@@H]1COC(C)(CCl)O1 (stereo partly drawn) [3-O-n-octadecyl-5,6-O-(1-chloromethylethylidene)-L-ascorbic acid]

- pKa (pKa by titration; read-out: pKa): 11
Structure (SMILES): CCCCCCCCCCCCCCCCCCOC1=C(O)C(=O)O[C@H]1[C@H](O)CO [3-O-n-octadecyl-D-ascorbic acid]

- pKa (pKa by titration; read-out: pKa): 10.9
Structure (SMILES): CCCCCCCCCCCCCCCOC1=C(O)C(=O)O[C@@H]1[C@@H]1COC(C)(C)O1 [3-O-n-pentadecyl-5,6-O-(1-methylethylidene)-L-ascorbic acid]

Structure (SMILES): CCCCCCCCCCCCCCCOC1=C(O)C(=O)O[C@@H]1[C@@H](O)CO [3-O-n-pentadecyl-L-ascorbic acid]
- inhibition in vivo at 300 mg/kg (angiogenesis factor; [3]): 50%

- pKa (pKa by titration; read-out: pKa): 6.55
Structure (SMILES): O=C1OC(C2COC(Cc3ccccc3)(Cc3ccccc3)O2)C(O)=C1O [5,6-O-(1-benzyl-2-phenylethylidene)-L-ascorbic acid]

- pKa (pKa by titration; read-out: pKa): 6.1
Structure (SMILES): CC1(CCl)OC[C@@H]([C@H]2OC(=O)C(O)=C2O)O1 (stereo partly drawn) [5,6-O-(1-chloromethylethylidene)-L-ascorbic acid]

- pKa (pKa by titration; read-out: pKa): 6.48
Structure (SMILES): CCCCCCCCCCC1OC[C@@H]([C@H]2OC(=O)C(O)=C2O)O1 (stereo partly drawn) [5,6-O-undecylidene-L-ascorbic acid]

Structure (SMILES): O=C1O[C@H]([C@@H](O)CO)C(OCc2ccccc2Cl)=C1O [R=2-chlorobenzyl, R^1=H (Table 1)]
- average % inhibition (serpentine vessels) (angiogenesis factor; Table 1, i.p., dose 25 mg./kg., 24 hours): 55%

Structure (SMILES): CCOC(=O)COC1=C(O)C(=O)O[C@@H]1[C@@H]1COC(C)(C)O1 [R=C2 H5 OCOCH2, R^1=H (Table 2)]
- % inhibition (serpentine vessels) (angiogenesis factor; [6]): 12%

Structure (SMILES): COC1=C(O)C(=O)O[C@@H]1[C@@H]1COC(C)(C)O1 [R=methyl, R^1=H (Table 2)]
- % inhibition (serpentine vessels) (angiogenesis factor; [6]): 15%

Structure (SMILES): CCCCOC1=C(O)C(=O)O[C@@H]1[C@@H]1COC(C)(C)O1 [R=n-butyl, R^1=H (Table 2)]
- % inhibition (serpentine vessels) (angiogenesis factor; [6]): 60%

Structure (SMILES): CCCCCCCCCCOC1=C(O)C(=O)O[C@@H]1[C@@H]1COC(C)(C)O1 [R=n-decyl, R^1=H (Table 2)]
- % inhibition (serpentine vessels) (angiogenesis factor; [6]): 48%

Structure (SMILES): CCCCCCOC1=C(O)C(=O)O[C@@H]1[C@@H]1COC(C)(C)O1 [R=n-hexyl, R^1=H (Table 2)]
- % inhibition (serpentine vessels) (angiogenesis factor; [6]): 41%
